# Experimental data as given in paper PMC10848769, “Tartrolon E, a secondary metabolite of a marine symbiotic bacterium, is a potent inhibitor of asexual and sexual Plasmodium falciparum” (Antimicrobial Agents and Chemotherapy, 2024).
# Where two headings read alike, the source gives them in different places.
# How the values were obtained:
# [1] = tested on: P. falciparum clone D6; test: Standard growth inhibition assay, Pf clone panel; format: cell-based; settings: Plasmodium falciparum; clone D6, Sierra Leone; read-out: EC50 (nM) (95% CI)
# Protocol: (§1) A diverse panel of P. falciparum clones, collected from four continents with varying genetic backgrounds and well-characterized susceptibilities to novel and existing antimalarials, was treated with TrtE and DHA in standard growth inhibition assays. […] Additional studies are needed to determine whether there is any similarity in mechanism between TrtE and DHA.
# [2] = tested on: P. falciparum clone TM90C2A; test: Standard growth inhibition assay, Pf clone panel; format: cell-based; settings: Plasmodium falciparum, Thailand, read-out: EC50 (nM) (95% CI)
# Protocol: as §1
# [3] = tested on: P. falciparum clone V1/S; test: Standard growth inhibition assay, Pf clone panel; format: cell-based; settings: Plasmodium falciparum, Vietnam, read-out: EC50 (nM) (95% CI)
# Protocol: as §1
# [4] = tested on: P. falciparum clone IPC 3445; test: Standard growth inhibition assay, Pf clone panel; format: cell-based; settings: Plasmodium falciparum; clone IPC 3445, Palin, Cambodia; read-out: EC50 (nM) (95% CI)
# Protocol: as §1
# [5] = tested on: P. falciparum clone IPC 5202; test: Standard growth inhibition assay, Pf clone panel; format: cell-based; settings: Plasmodium falciparum; clone IPC 5202, Battambang, Cambodia; read-out: EC50 (nM) (95% CI)
# Protocol: as §1
# [6] = tested on: P. falciparum clone Dd2; test: Standard growth inhibition assay, Pf clone panel; format: cell-based; settings: Plasmodium falciparum, DD2, read-out: EC50 (nM) (95% CI)
# Protocol: as §1
# [7] = tested on: P. falciparum clone 7G8; test: Standard growth inhibition assay, Pf clone panel; format: cell-based; settings: Plasmodium falciparum; clone 7G8, Brazil; read-out: EC50 (nM) (95% CI)
# Protocol: as §1
# [8] = tested on: P. falciparum clone HB3; test: Standard growth inhibition assay, Pf clone panel; format: cell-based; settings: Plasmodium falciparum; clone HB3, Honduras; read-out: EC50 (nM) (95% CI)
# Protocol: as §1
# [9] = tested on: P. falciparum clone 3D7; test: Standard growth inhibition assay, Pf clone panel; format: cell-based; settings: Plasmodium falciparum; clone 3D7, Netherlands; read-out: EC50 (nM) (95% CI)
# Protocol: as §1
# [10] = tested on: P. falciparum clone NF54; test: Standard growth inhibition assay, Pf clone panel; format: cell-based; settings: Plasmodium falciparum; clone NF54, Netherlands; read-out: EC50 (nM) (95% CI)
# Protocol: as §1
# [11] = tested on: P. falciparum clone D10 w/ yDHODH; test: Standard growth inhibition assay, Pf clone panel; format: cell-based; settings: Plasmodium falciparum, D10, read-out: EC50 (nM) (95% CI)
# Protocol: as §1
# [12] = tested on: P. falciparum clone GMC1; test: Standard growth inhibition assay, Pf clone panel; format: cell-based; settings: Plasmodium falciparum; clone GMC1, Goa, India; read-out: EC50 (nM) (95% CI)
# Protocol: as §1
# [13] = tested on: Pf NF54 late-stage gametocytes (stage III to stage V); test: Late-stage gametocyte viability assay (alamarBlue); format: cell-based; settings: Plasmodium falciparum, 72 h, 3 days treatment, three independent experiments
# Protocol: (§2) Gametocytes of Pf NF54, the competent gametocyte-producing clone, were treated with TrtE as previously described ([15], [16]). […] To validate the in vitro gametocytocidal activity of TrtE, mosquito infectivity assays were conducted. […] Oocyst development in mosquitoes represents a significant bottleneck in the life cycle of Plasmodium spp. where transmission can be efficiently interrupted ([18]).
# Fig 3 TrtE activity against gametocytes. Enriched, late-stage gametocytes were treated for 3 days with TrtE and then viability-tested with alamarBlue (Invitrogen) ([15], [16]). Three independent experiments (squares, triangles, and diamonds) determined the average EC50 to be 140 ± 42 nM.
# [14] = tested on: human liver cell line HepG2; test: In vitro cytotoxicity assay; format: cell-based; settings: for EC50: Homo sapiens
# Protocol: (§3) In preliminary experiments to evaluate cytotoxicity to mammalian cells, the murine leukemia L1210 cell line and the human liver cell line HepG2 were grown under identical conditions alongside Pf 3D7. These were treated with TrtE, the chemotherapeutic methotrexate, and DSM265, an inhibitor of parasite dihydroorotate dehydrogenase ([19]).
# [15] = tested on: P. falciparum 3D7 asexual blood stages; test: Standard 72-hour inhibitor-response (parasite proliferation) assay; format: cell-based; settings: Plasmodium falciparum; 3D7, 72-hour assay; read-out: 3D7 EC50
# [16] = tested on: diverse panel of P. falciparum clones; test: Standard growth inhibition assays, whole panel; format: cell-based, Plasmodium falciparum; settings: including two artemisinin-resistant clones from Western Cambodia
# Protocol: as §1
# [17] = tested on: Pf 3D7; test: Parasite growth alongside mammalian cytotoxicity assays; format: cell-based; settings: Plasmodium falciparum; 3D7, grown under identical conditions alongside mammalian cells; read-out: EC50 (µM) (95% CI) 3D7
# Protocol: as §3
# [18] = tested on: murine leukemia L1210 cell line; test: In vitro cytotoxicity assay
# Protocol: as §3
# [19] = tested on: P. falciparum NF54 oocyst development in Anopheles dirus mosquitoes; test: Mosquito infectivity assay (standard membrane feeding, oocyst count); format: in vivo, Plasmodium falciparum; settings: 100 nM TrtE on late-stage gametocytes, fed to Anopheles dirus, oocysts counted after 9 days, four independent experiments, P = 0.016
# Protocol: as §2
# Fig 4 TrtE inhibition of oocyst development in mosquitoes. Late-stage Pf NF54 gametocytes were incubated with 100 nM TrtE, the approximate gametocidal EC50, or left untreated. Following incubation and development to stage V, the cultures were fed to female Anopheles dirus mosquitoes using standard membrane feeding techniques. After 9 days, the mosquitoes were dissected, and oocysts were stained and counted. The infection rate was measured as the ratio of mosquitoes with one or more oocysts to the number of dissected mosquitoes. ^*P < 0.05.
# [20] = tested on: asexual parasites; settings: preliminary single-step selection, data not shown
smiles,measurement,setting,value
C[C@@H]1CCC2CC(=O)C[C@@H](O)CC/C=C/C=C\CC[C@H](C)OC(=O)[C@@H]3O[B-]45O[C@@H](C(=O)O[C@@H](C)CC/C=C\C=C\CC[C@H](O)CC(=O)CC6CC[C@@H](C)[C@]3(O6)O4)[C@@]1(O2)O5 [Tartrolon E],EC50,[1],0.14 nM
same,EC50,[2],0.16 nM
same,EC50,[3],0.31 nM
same,EC50,[4],0.73 nM
same,EC50,[5],0.81 nM
same,EC50,[6],0.28 nM
same,EC50,[7],0.18 nM
same,EC50,[8],0.13 nM
same,EC50,[9],0.16 nM
same,EC50,[10],0.2 nM
same,EC50,[11],0.19 nM
same,EC50,[12],0.26 nM
same,EC50,[13],140 nM
same,Selectivity index (EC50 of HepG2/EC50 3D7),[14]; HepG2 vs 3D7,444
same,EC50,"[14]; HepG2, read-out: EC50 (µM) (95% CI) HepG2",0.071 µM
same,EC50,"[14]; HepG2, as printed in text, read-out: HepG2 EC50",0.07 µM
same,EC50,[15],0.105 nM
same,Concentration inhibiting all clones of the panel,[16],sub-nanomolar concentrations
same,EC50,[17],0.00016 µM
same,Concentration inhibiting L1210 growth,[18]; L1210,sub-micromolar concentrations
same,Selectivity index (EC50 of L1210/EC50 3D7),[18]; L1210 vs 3D7,"1,438"
same,EC50,"[18]; Mus musculus, L1210, read-out: EC50 (µM) (95% CI) L1210",0.23 µM
same,"Mosquito infection by P. falciparum (infection rate, oocysts)",[19],significantly inhibited mosquito infection
same,Hurdle to resistance under drug pressure,[20],high hurdles to resistance
